Drawing on patent US6552196B2, “Quinolone carboxylic acid derivatives” (Dong Wha Pharmaceutical Industrial Co., Ltd., priority 1997, dated 2003), this text covers MIC for 4 molecules.

The structures appear in SMILES notation. Values after ≈ are worked out from the molar mass of the structure shown.

Holding throughout (test): In vitro antibacterial activity (MIC), agar dilution
Common to all, as to assay type: cell-based
In general terms: Agar dilution tests growth on a series of plates holding different concentrations.

In assay [1] the test system is Enterobacter clocae 1321E. As to conditions: 2-fold agar dilution, Muller-Hinton agar, 18 hours at 37° C., read-out: minimum inhibitory concentration (MIC). As for the experimental part: (§1) 10^7 cfu/ml of bacteria were inoculated and cultured for 18 hours at 37° C. and then the antibacterial activities were measured. For the methicillin resistant strains the activities were measured after 48 hours of cultivation at 30° C. Hoechst Standard strains were used for the testings.

A further assay concerns Enterobacter clocae P99. To be noted: 2-fold agar dilution, Muller-Hinton agar, 18 hours at 37° C., read-out: minimum inhibitory concentration (MIC). The procedure: as §1
Another assay concerns Esherichia coli 078. To be noted: 2-fold agar dilution, Muller-Hinton agar, 18 hours at 37° C., read-out: minimum inhibitory concentration (MIC). The procedure:
as §1

A further assay relates to Esherichia coli 1507E. To be noted: 2-fold agar dilution, Muller-Hinton agar, 18 hours at 37° C., read-out: minimum inhibitory concentration (MIC). The procedure: as §1
The next assay deals with Esherichia coli DC0. As to conditions: 2-fold agar dilution, Muller-Hinton agar, 18 hours at 37° C., read-out: minimum inhibitory concentration (MIC). The procedure: as §1
The next assay has as its system Esherichia coli TEM. As to conditions: 2-fold agar dilution, Muller-Hinton agar, 18 hours at 37° C., read-out: minimum inhibitory concentration (MIC). As for the experimental part: as §1
Assay [2] relates to Klebsiella aerogenes 1522E. To be noted: 2-fold agar dilution, Muller-Hinton agar, 18 hours at 37° C., read-out: minimum inhibitory concentration (MIC). As for the experimental part: as §1
The next assay relates to Klebsiella oxytoca 1082E. As to conditions: 2-fold agar dilution, Muller-Hinton agar, 18 hours at 37° C., read-out: minimum inhibitory concentration (MIC). The procedure:
as §1

Assay [3] relates to Pseudomonas aeruginosa 1592E. As to conditions: 2-fold agar dilution, Muller-Hinton agar, 18 hours at 37° C., read-out: minimum inhibitory concentration (MIC). The procedure:
as §1

For assay [4], the system named is Pseudomonas aeruginosa 1771M. As to conditions: Pseudomonas aeruginosa, 1771M, 18 h, read-out: minimum inhibitory concentration (MIC). The procedure:
as §1

Assay [5] has as its system Pseudomonas aeruginosa 1771. As to conditions: 2-fold agar dilution, Muller-Hinton agar, 18 hours at 37° C., read-out: minimum inhibitory concentration (MIC). As for the experimental part: as §1
The subject of assay [6] is Pseudomonas aeruginosa 9027. As to conditions: 2-fold agar dilution, Muller-Hinton agar, 18 hours at 37° C., read-out: minimum inhibitory concentration (MIC). As for the experimental part: as §1
Another assay deals with Salmonella typhimurium. To be noted: Salmonella enterica, 2-fold agar dilution, Muller-Hinton agar, 18 hours at 37° C., read-out: minimum inhibitory concentration (MIC). The procedure: as §1
Assay [7] deals with Staphylococcus aureus 285. To be noted: 2-fold agar dilution, Muller-Hinton agar, 18 hours at 37° C., read-out: minimum inhibitory concentration (MIC). As for the experimental part: as §1
Assay [8] has as its system Staphylococcus aureus 503. To be noted: 2-fold agar dilution, Muller-Hinton agar, 18 hours at 37° C., read-out: minimum inhibitory concentration (MIC). As for the experimental part:
as §1

Assay [9] relates to Staphylococcus aureus SG511. To be noted: 2-fold agar dilution, Muller-Hinton agar, 18 hours at 37° C., read-out: minimum inhibitory concentration (MIC). The procedure: as §1
Assay [10] concerns Streptococcus faecium MD 8b. To be noted: Enterococcus faecium, MD8B, 2-fold agar dilution, Muller-Hinton agar, 18 hours at 37° C., read-out: minimum inhibitory concentration (MIC). As for the experimental part:
as §1

Assay [11] concerns Streptococcus pyogens 308A. As to conditions: 2-fold agar dilution, Muller-Hinton agar, 18 hours at 37° C., read-out: minimum inhibitory concentration (MIC). As for the experimental part:
as §1

Assay [12] relates to Streptococcus pyogens 77A. As to conditions: 2-fold agar dilution, Muller-Hinton agar, 18 hours at 37° C., read-out: minimum inhibitory concentration (MIC). The procedure: as §1

Take `CON=C1CN(c2c(F)cc3c(=O)c(C(=O)O)cn(C4CC4)c3c2Cl)CC12CNC2` [Example 4, 1-Cyclopropyl-6-fluoro-8-chloro-7-[8-(methoxyimino)-2,6-diazaspiro[3,4]oct-6-yl]-4-oxo-1,4-dihydro-3-quinolinecarboxylic acid]: the MIC stood at 0.025 µg/mL (≈ 0.0575 µM) in [1]; 0.049 µg/mL (≈ 0.113 µM) with Enterobacter clocae P99; 0.025 µg/mL (≈ 0.0575 µM) in the assay with Esherichia coli 078; 0.049 µg/mL (≈ 0.113 µM) with Esherichia coli 1507E; 0.391 µg/mL (≈ 0.899 µM) in the assay on Esherichia coli DC0; 0.049 µg/mL (≈ 0.113 µM) with Esherichia coli TEM. Besides, the MIC in [2] is 0.098 µg/mL (≈ 0.225 µM); with Klebsiella oxytoca 1082E, 0.004 µg/mL (≈ 0.0092 µM); in [3], 0.781 µg/mL (≈ 1.8 µM); in [4], 0.391 µg/mL (≈ 0.899 µM); in assay [5], 0.781 µg/mL (≈ 1.8 µM); in assay [6] it was 0.781 µg/mL (≈ 1.8 µM). The MIC stood at 0.025 µg/mL (≈ 0.0575 µM) in the assay on Salmonella typhimurium; 0.049 µg/mL (≈ 0.113 µM) in assay [7]; 0.025 µg/mL (≈ 0.0575 µM) in [8]; 0.013 µg/mL (≈ 0.0299 µM) in [9]; 0.098 µg/mL (≈ 0.225 µM) in assay [10]; 0.195 µg/mL (≈ 0.448 µM) in [11]. Besides, the MIC in assay [12] came out at 0.013 µg/mL (≈ 0.0299 µM).

On to `CON=C1CN(c2nc3c(cc2F)c(=O)c(C(=O)O)cn3-c2ccc(F)cc2F)CC12CNC2.CS(=O)(=O)O` [Example 7, 1-(2,4-Difluorophenyl)-6-fluoro-7-[8-(methoxyimino)-2,6-diazaspiro[3,4]oct-6-yl]-4-oxo-1,4-dihydro-1,8-naphthyridine-3-carboxylic acid methane sulfonate], for which the MIC in assay [1] stood at 0.049 µg/mL; in the assay on Enterobacter clocae P99, 0.098 µg/mL; in the assay on Esherichia coli 078, 0.049 µg/mL; with Esherichia coli 1507E, 0.195 µg/mL; with Esherichia coli DC0, 0.781 µg/mL; with Esherichia coli TEM, 0.098 µg/mL. The MIC in assay [2] is 0.195 µg/mL; in the assay with Klebsiella oxytoca 1082E, 0.013 µg/mL; in assay [3], 1.56 µg/mL; in [4], 0.781 µg/mL; in assay [5], 1.56 µg/mL; in assay [6], 1.56 µg/mL. In addition, the MIC is 0.049 µg/mL with Salmonella typhimurium; 0.049 µg/mL in [7]; 0.025 µg/mL in assay [8]; 0.013 µg/mL in assay [9]; 0.098 µg/mL in assay [10]; 0.195 µg/mL in assay [11]. Moreover, the MIC in [12] came out at 0.013 µg/mL.

With `CCON=C1CN(c2nc3c(cc2F)c(=O)c(C(=O)O)cn3C2CC2)CC12CNC2.CS(=O)(=O)O` [Example 8, 1-Cyclopropyl-6-fluoro-7-[8-(ethoxyimino)-2,6-diazaspiro[3,4]oct-6-yl]-4-oxo-1,4-dihydro-1,8-naphthyridine-3-carboxylic acid methanesulfonate], the MIC in assay [1] was found to be 0.025 µg/mL; in the assay on Enterobacter clocae P99 it was 0.025 µg/mL; with Esherichia coli 078 it was 0.013 µg/mL; with Esherichia coli 1507E it was 0.049 µg/mL; in the assay on Esherichia coli DC0 it was 0.391 µg/mL; with Esherichia coli TEM, 0.025 µg/mL. Moreover, the MIC amounted to 0.098 µg/mL in assay [2]; 0.004 µg/mL in the assay on Klebsiella oxytoca 1082E; 0.781 µg/mL in assay [3]; 0.781 µg/mL in [4]; 0.781 µg/mL in [5]; 1.56 µg/mL in assay [6]. Also, the MIC in the assay on Salmonella typhimurium came to 0.013 µg/mL; in assay [7], 0.025 µg/mL; in assay [8], 0.013 µg/mL; in assay [9], 0.007 µg/mL; in assay [10], 0.098 µg/mL; in assay [11], 0.098 µg/mL. For the same molecule, the MIC in [12] is 0.007 µg/mL.

For `CON=C1CN(c2nc3c(cc2F)c(=O)c(C(=O)O)cn3C2CC2)CC12CN(C)C2` [Example 10, 1-Cyclopropyl-6-fluoro-7-[8-(methoxyimino)-2-methyl-2,6-diazaspiro[3,4]oct-6-yl]-4-oxo-1,4-dihydro-1,8-naphthyridine-3-carboxylic acid], the MIC in [1] was 0.025 µg/mL (≈ 0.0602 µM); in the assay with Enterobacter clocae P99 it was 0.049 µg/mL (≈ 0.118 µM); in the assay on Esherichia coli 078 it was 0.013 µg/mL (≈ 0.0313 µM); in the assay on Esherichia coli 1507E, 0.049 µg/mL (≈ 0.118 µM); in the assay on Esherichia coli DC0, 0.391 µg/mL (≈ 0.941 µM); in the assay on Esherichia coli TEM, 0.049 µg/mL (≈ 0.118 µM). Besides, the MIC in [2] turned out to be 0.098 µg/mL (≈ 0.236 µM); in the assay on Klebsiella oxytoca 1082E, 0.007 µg/mL (≈ 0.0169 µM); in [3] it was 0.781 µg/mL (≈ 1.88 µM); in assay [4], 0.781 µg/mL (≈ 1.88 µM); in assay [5], 0.781 µg/mL (≈ 1.88 µM); in [6], 0.781 µg/mL (≈ 1.88 µM). Further, the MIC in the assay on Salmonella typhimurium came out at 0.049 µg/mL (≈ 0.118 µM); in [7], 0.049 µg/mL (≈ 0.118 µM); in [8] it was 0.025 µg/mL (≈ 0.0602 µM); in assay [9] it was 0.013 µg/mL (≈ 0.0313 µM); in assay [10] it was 0.098 µg/mL (≈ 0.236 µM); in [11] it was 0.098 µg/mL (≈ 0.236 µM). For the same molecule, the MIC in assay [12] worked out at 0.013 µg/mL (≈ 0.0313 µM).
